Here are results for four molecules from PMC7407242, “Deamidated Human Triosephosphate Isomerase is a Promising Druggable Target” (Biomolecules, 2020).

Test [1] addresses T1, HsTIM (human triosephosphate isomerase) (Homo sapiens, UniProt P60174, N16D).
T1 construct: gene TPI1; full-length; recombinant E. coli BL21-CodonPlus(DE3)-RIL, vector pET3a-HisTEV, N-terminal His6-TEV tag cut by TEVp for purified assays; tagged plasmid in E. coli tim-deletion BL21-Gold(DE3) cells for omeprazole; homodimer, 5 Cys per subunit
The test is described as follows: residual activity after preincubation, coupled alpha-GPDH / NADH assay at […] nm. In kind it is biochemical. To be noted: read-out: activity dropped to 50%.

The target of test [2] is T2, HsTIM (human triosephosphate isomerase) (Homo sapiens, UniProt P60174). The test is described as follows: Ellman free thiol count after derivatization. Format: binding. Also noted: gene TPI1; full-length; recombinant E. coli BL21-CodonPlus(DE3)-RIL, vector pET3a-HisTEV, N-terminal His6-TEV tag cut by TEVp for purified assays; tagged plasmid in E. coli tim-deletion BL21-Gold(DE3) cells for omeprazole; homodimer, 5 Cys per subunit. To be noted: covalent; 250 µM compound, 2 h at 37 °C, enzyme 0.5 mg/mL, TE buffer pH 7.4. The text has this: Ellman free thiol count after derivatization on HsTIM (human triosephosphate isomerase)

The target in test [3] is T2, HsTIM (human triosephosphate isomerase). Put plainly: TIM activity in lysate of treated E. coli tim-deletion cells. In kind it is cell-based. Also noted: gene TPI1; full-length; tagged plasmid in E. coli tim-deletion BL21-Gold(DE3) cells for omeprazole; homodimer, 5 Cys per subunit. The settings on record: residual activity; 0.75 mM omeprazole, 22 h at 37 °C, M9 medium; covalent. An excerpt:
TIM activity in lysate of treated E. coli tim-deletion cells on HsTIM (human triosephosphate isomerase)

T1 sequence (P60174 2-249 N16D): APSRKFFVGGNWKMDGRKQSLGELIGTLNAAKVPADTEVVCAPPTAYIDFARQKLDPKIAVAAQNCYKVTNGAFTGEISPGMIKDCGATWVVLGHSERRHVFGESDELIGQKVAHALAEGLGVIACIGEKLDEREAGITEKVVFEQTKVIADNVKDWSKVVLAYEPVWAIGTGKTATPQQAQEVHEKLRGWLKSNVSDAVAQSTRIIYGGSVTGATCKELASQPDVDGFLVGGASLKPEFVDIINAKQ
T2 sequence (P60174 2-249): as the sequence (P60174 2-249 N16D) above, with D15N counted along it

With `O=C(O)c1cc(SSc2ccc([N+](=O)[O-])c(C(=O)O)c2)ccc1[N+](=O)[O-]` [DTNB, 5,5′-dithiobis-(2-nitrobenzoic acid)], the IC50 in test [1] was 3 µM.
For `CSS(C)(=O)=O` [MMTS], the “Derivatized Cys/Subunit” value in test [2] stood at 1 Cys/subunit. The IC50 in test [1] was found to be 7.5 µM.
Turning to `CS(=O)(=O)SCCS(=O)(=O)O` [MTSES, sodium 2-[(methylsulfonyl)sulfanyl] ethanesulfonate], the “Derivatized Cys/Subunit” value in test [2] is 1 Cys/subunit. For the same molecule, the IC50 in test [1] amounted to 6 µM.
With `COc1ccc2[nH]c([S+]([O-])Cc3ncc(C)c(OC)c3C)nc2c1` (stereo not drawn) [omeprazole], the “Enzyme Activity (%)” value in test [3] was 96 ± 4%.
